From the supplement of paper PMC10307832

Experiments:
Assay in all cases: relative viability (nuclei count vs DMSO), 5 days (fraction); higher = more cells survive
[1] = compound: N=C1NC(=O)/C(=C/c2ccc(O)cc2)S1 [Mirin] + COc1cc2c(Oc3ccc(NC(=O)C4(C(=O)Nc5ccc(F)cc5)CC4)cc3F)ccnc2cc1OCCCN1CCOCC1 [Foretinib] (partner 0.25 µM)
Summary of the method: (§1)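 Relative viability divides the nuclei count in treated wells by that in vehicle wells. Lung cancer cell lines were seeded in 1536-well plates, dosed by pin tool the next day, and fixed and stained after 5 days in one step with final 0.05% Triton X-100, 1% formaldehyde and 1 ug/ml Hoechst. Dosing was a single drug or a fixed anchor-drug dose plus five library-drug doses (not always all listed) in √10 steps, and values are medians of duplicate plates imaged at 4×.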

[2] = compound: N=C1NC(=O)/C(=C/c2ccc(O)cc2)S1 [Mirin] + Nc1nc2[nH]cc(CCc3ccc(C(=O)N[C@@H](CCC(=O)O)C(=O)O)cc3)c2c(=O)[nH]1 [Pemetrexed] (partner 0.2 µM)
Summary of the method: as §1

[3] = compound: N=C1NC(=O)/C(=C/c2ccc(O)cc2)S1 [Mirin] + CC(C)C[C@H](NC(=O)[C@H](Cc1ccccc1)NC(=O)c1cnccn1)B(O)O [Bortezomib] (partner 0.002 µM)
Summary of the method: as §1

[4] = compound: CCC1=CN=CN=C1N2CCN(CC2)CC3=NC4=C(N3)C=C(C=C4)C(F)(F)F + O=C(CCCCCCC(=O)Nc1ccccc1)NO [Vorinostat] (partner 1 µM)
Summary of the method: as §1

UMC-11
relative viability ([1]; first compound 0.25 µM): 1.03 | relative viability ([1]; first compound 0.7906 µM): 1.05 | relative viability ([1]; first compound 2.5 µM): 1 | relative viability ([1]; first compound 7.906 µM): 0.918 | relative viability ([1]; first compound 25 µM): 0.61 | relative viability ([2]; first compound 0.25 µM): 0.787 | relative viability ([2]; first compound 0.7906 µM): 0.74 | relative viability ([2]; first compound 2.5 µM): 0.92 | relative viability ([2]; first compound 7.906 µM): 0.691 | relative viability ([2]; first compound 25 µM): 0.568 | relative viability ([3]; first compound 0.25 µM): 0.876 | relative viability ([3]; first compound 0.7906 µM): 0.457 | relative viability ([3]; first compound 2.5 µM): 0.629 | relative viability ([3]; first compound 7.906 µM): 0.636 | relative viability ([3]; first compound 25 µM): 0.547 | relative viability ([4]; first compound 0.04 µM): 0.357 | relative viability ([4]; first compound 0.1265 µM): 0.359 | relative viability ([4]; first compound 0.4 µM): 0.376 | relative viability ([4]; first compound 1.265 µM): 0.304 | relative viability ([4]; first compound 4 µM): 0.316
